Assay results: the Kinase Knowledgebase extract (Sharma et al. 2016)

Key:
[1] = target: CDK2 (human) (UniProt P24941); test: Enzyme Assay
[2] = target: MAPK14 (human) (UniProt Q16539); test: Inhibition of MAPK14 Kinase Activity
[3] = target: EGFR (human) (UniProt P00533)
Chain of EGFR (human) (P00533 whole entry, looked up): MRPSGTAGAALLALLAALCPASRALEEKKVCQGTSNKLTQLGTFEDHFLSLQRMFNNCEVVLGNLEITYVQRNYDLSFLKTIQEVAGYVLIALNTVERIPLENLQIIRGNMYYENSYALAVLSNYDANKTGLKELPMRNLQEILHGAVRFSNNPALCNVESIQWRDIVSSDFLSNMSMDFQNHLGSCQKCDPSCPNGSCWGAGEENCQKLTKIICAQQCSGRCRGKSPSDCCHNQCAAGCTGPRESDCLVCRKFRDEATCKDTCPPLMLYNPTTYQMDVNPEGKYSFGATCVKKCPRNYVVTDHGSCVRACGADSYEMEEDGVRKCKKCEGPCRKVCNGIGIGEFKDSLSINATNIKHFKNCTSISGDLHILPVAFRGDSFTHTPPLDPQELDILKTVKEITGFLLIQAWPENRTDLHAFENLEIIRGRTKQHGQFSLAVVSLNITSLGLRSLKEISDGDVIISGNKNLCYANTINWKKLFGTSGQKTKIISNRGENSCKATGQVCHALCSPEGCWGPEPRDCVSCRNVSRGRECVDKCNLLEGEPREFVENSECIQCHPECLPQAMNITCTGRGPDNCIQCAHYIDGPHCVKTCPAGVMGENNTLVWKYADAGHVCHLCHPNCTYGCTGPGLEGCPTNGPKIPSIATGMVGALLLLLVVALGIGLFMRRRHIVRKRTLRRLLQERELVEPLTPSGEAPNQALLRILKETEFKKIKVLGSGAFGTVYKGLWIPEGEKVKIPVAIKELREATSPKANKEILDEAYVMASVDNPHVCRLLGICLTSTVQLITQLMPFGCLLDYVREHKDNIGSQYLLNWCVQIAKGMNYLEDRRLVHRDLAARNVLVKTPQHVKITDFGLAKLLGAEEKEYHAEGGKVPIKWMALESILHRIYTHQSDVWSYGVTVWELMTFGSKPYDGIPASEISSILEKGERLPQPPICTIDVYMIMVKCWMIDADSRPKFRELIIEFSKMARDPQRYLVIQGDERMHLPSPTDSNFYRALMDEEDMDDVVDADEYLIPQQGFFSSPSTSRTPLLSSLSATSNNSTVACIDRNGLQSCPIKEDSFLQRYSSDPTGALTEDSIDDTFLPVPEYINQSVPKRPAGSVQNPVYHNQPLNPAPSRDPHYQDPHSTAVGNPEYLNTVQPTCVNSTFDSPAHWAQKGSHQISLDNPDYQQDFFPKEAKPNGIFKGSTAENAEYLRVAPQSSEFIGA

Chain of MAPK14 (human) (Q16539 whole entry, looked up): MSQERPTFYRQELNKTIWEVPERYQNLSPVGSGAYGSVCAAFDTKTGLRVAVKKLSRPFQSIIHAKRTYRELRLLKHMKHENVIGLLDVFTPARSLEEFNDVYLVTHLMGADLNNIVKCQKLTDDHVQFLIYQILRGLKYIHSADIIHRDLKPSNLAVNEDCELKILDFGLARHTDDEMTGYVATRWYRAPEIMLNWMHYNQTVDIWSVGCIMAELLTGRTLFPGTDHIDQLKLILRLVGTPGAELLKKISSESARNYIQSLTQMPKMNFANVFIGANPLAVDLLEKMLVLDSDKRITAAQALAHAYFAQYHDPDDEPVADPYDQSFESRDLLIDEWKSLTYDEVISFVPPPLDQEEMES

| Compound | IC50 [1] | IC50 [2] | IC50 [3] |
| --- | --- | --- | --- |
| OCCOc1ccc(F)c(Cc2c[nH]c3ncc(-c4cccnc4)cc23)c1F | ≤ 10 µM | – | – |
| CCCC(=O)Nc1ccc(F)c(Cc2c[nH]c3ncc(-c4cccnc4)cc23)c1F | ≤ 10 µM | – | – |
| Nc1cccc(-c2cnc3[nH]cc(C(=O)c4cccc(O)c4F)c3c2)c1 | – | ≤ 10 µM | ≤ 10 µM |
| O=C(c1cccc(O)c1)c1c[nH]c2ncc(Nc3ccccc3)cc12 | – | ≤ 10 µM | ≤ 10 µM |
| CCCS(=O)(=O)Nc1ccc(F)c(C(OC)c2c[nH]c3ncc(OC)cc23)c1F (stereo not given) | ≤ 10 µM | – | – |
| Nc1cccc(-c2cnc3[nH]cc(C(=O)c4cc(O)ccc4F)c3c2)c1 | – | ≤ 10 µM | ≤ 10 µM |
| CCCS(=O)(=O)Nc1ccc(F)c(C(=O)c2c[nH]c3ncc(OC)cc23)c1F | ≤ 10 µM | ≤ 10 µM | – |
| CC(=O)Nc1cccc(-c2cnc3[nH]cc(C(=O)c4cc(O)ccc4F)c3c2)c1 | – | ≤ 10 µM | ≤ 10 µM |
| Nc1cccc(-c2cnc3[nH]cc(C(=O)c4cccc(O)c4)c3c2)c1 | – | ≤ 10 µM | ≤ 10 µM |
